What follows are compounds tested on WNT signaling (TopGFP reporter in Human Colonic Epithelial Cells (HCEC)) (assay: WNT Reporter Assay (TopGFP reporter)). Settings: Homo sapiens, stimulated with 10 μM CHIR99021, 24 hours, TopGFP/mCherry.
Assay type: cell-based
Procedure: WNT Reporter Assay: Human Colonic Epithelial Cells (HCEC) were cultured using 1×DMEM supplemented with 1% penicillin/streptomycin, 1% Glutamax, and 10% fetal bovine serum in 5% CO2 at 37° C. These cells were previously engineered to express the TopGFP reporter (Addgene #24304) using second generation lentiviral techniques. For the Wnt reporter assay, cells were seeded at 2000 cells per well in a 384-well black screenstar imaging microplates (Greiner #781866) and allowed to adhere overnight. The following day cells were stimulated to induce the Wnt pathway using 10 μM CHIR99021 (Selleck #S1263). […] Cells were incubated for 24 hours before fixing for 30 minutes with 4% paraformaldehyde/sucrose solution. Cells were permeabilized with 0.1% triton-x in PBS for 10 minutes and stained for DAPI for 30 minutes. Plates were imaged on a Nikon Ti2 Eclipse fluorescent microscope for DAPI, GFP, and mCherry. Using Nikon Elements software for analysis, nuclei were segmented based on DAPI and mean object intensity per cell for both TopGFP and the internal control (mCherry) was measured. To calculate the amount of Wnt activity, we took the mean intensity of TopGFP and divided it by the mean intensity of mCherry per cell to normalize individual cells. Curves and EC50s were plotted and calculated using Graphpad Prism software.

| Compound | EC50 [nM] |
| --- | --- |
| Nc1cc(-c2ccc3ncnc(N4CCN(c5ccccc5F)CC4)c3c2)ccn1 [Compound 15, 4-(4-(4-(2-fluorophenyl)piperazin-1-yl)quinazolin-6-yl)pyridin-2-amine] | 100 to 1000 |
| Nc1cc(-c2ccc3ncnc(N4CCN(c5ccc(O)cc5)CC4)c3c2)ccn1 [Compound 27, 4-(4-(6-(2-aminopyridin-4-yl)quinazolin-4-yl)piperazin-1-yl)phenol] | 100 to 1000 |
| Nc1cc(-c2ccc3ncnc(N4[C@@H]5CC[C@H]4CN(c4ccccn4)C5)c3c2)ccn1 [Compound 54, 4-(4-((1R,5S)-3-(pyridin-2-yl)-3,8-diazabicyclo[3.2.1]octan-8-yl)quinazolin-6-yl)pyridin-2-amine] | 100 to 1000 |
| Nc1cc(-c2ccc3ncnc(N4C[C@H]5CN(c6ccccn6)C[C@H]5C4)c3c2)ccn1 [Compound 66, 4-(4-((3aR,6aS)-5-(pyridin-2-yl)hexahydropyrrolo[3,4-c]pyrrol-2(1H)-yl)quinazolin-6-yl)pyridin-2-amine] | 100 to 1000 |
| Nc1cc(-c2ccc3ncnc(N4CCC(n5ccccc5=O)CC4)c3c2)ccn1 [Compound 62, 1-(1-(6-(2-aminopyridin-4-yl)quinazolin-4-yl)piperidin-4-yl)pyridin-2(1H)-one] | 100 to 1000 |
| Cn1cc(-c2ccc3ncnc(N4CCN(c5ccccn5)CC4)c3c2)cn1 [Compound 7, 6-(1-methyl-1H-pyrazol-4-yl)-4-(4-(pyridin-2-yl)piperazin-1-yl)quinazoline] | 100 to 1000 |
| Nc1cc(-c2ccc3ncnc(N4CCCN(c5ccccn5)CC4)c3c2)ccn1 [Compound 56, 4-(4-(4-(pyridin-2-yl)-1,4-diazepan-1-yl)quinazolin-6-yl)pyridin-2-amine] | > 1000 |
| Nc1cc(-c2ccc3nccc(N4CCN(c5ccccc5F)CC4)c3c2)ccn1 [Compound 33, 4-(4-(4-(2-fluorophenyl)piperazin-1-yl)quinolin-6-yl)pyridin-2-amine] | 100 to 1000 |
| Cc1n[nH]cc1-c1ccc2ncnc(N3CCN(c4ccccn4)CC3)c2c1 [Compound 60, 6-(3-methyl-1H-pyrazol-4-yl)-4-(4-(pyridin-2-yl)piperazin-1-yl)quinazoline] | > 1000 |
| Nc1cc(-c2ccc3ncnc(N4CCC(c5ccc(F)cc5F)CC4)c3c2)ccn1 [Compound 63, 4-(4-(4-(2,4-difluorophenyl)piperidin-1-yl)quinazolin-6-yl)pyridin-2-amine] | 100 to 1000 |
| Nc1cc(-c2ccc3ncnc(N4CCN(c5ccc(O)cc5)CC4)c3n2)ccn1 [Compound 28, 4-(4-(6-(2-aminopyridin-4-yl)pyrido[3,2-d]pyrimidin-4-yl)piperazin-1-yl)phenol] | < 100 |
| CC(=O)N1CCN(c2ncnc3ccc(-c4ccnc(N)c4)cc23)CC1 [Compound 1, 1-(4-(6-(2-aminopyridin-4-yl)quinazolin-4-yl)piperazin-1-yl)ethan-1-one] | 100 to 1000 |
| Fc1cc(-c2ccc3ncnc(N4CCN(c5ccccn5)CC4)c3c2)ccn1 [Compound 13, 6-(2-fluoropyridin-4-yl)-4-(4-(pyridin-2-yl)piperazin-1-yl)quinazoline] | > 1000 |

Second part, the compound after the results:

| EC50 [nM] | Compound |
| --- | --- |
| < 100 | Nc1cc(-c2ccc3ncnc(N4CCN(c5ccccn5)CC4)c3c2)ccn1 [Compound 3, 4-(4-(4-(pyridin-2-yl)piperazin-1-yl)quinazolin-6-yl)pyridin-2-amine] |
| < 100 | Fc1cccnc1N1CCN(c2ncnc3ccc(-c4c[nH]c5ncccc45)cc23)CC1 [Compound 57, 4-(4-(3-fluoropyridin-2-yl)piperazin-1-yl)-6-(1H-pyrrolo[2,3-b]pyridin-3-yl)quinazoline] |
| < 100 | Nc1cc(-c2ccc3ncnc(N4CCN(c5ccccc5)CC4)c3c2)ccn1 [Compound 2, 4-(4-(4-phenylpiperazin-1-yl)quinazolin-6-yl)pyridin-2-amine] |
| < 100 | Nc1cc(-c2ccc3nccc(N4CCN(c5ccccc5F)CC4)c3n2)ccn1 [Compound 52, 4-(8-(4-(2-fluorophenyl)piperazin-1-yl)-1,5-naphthyridin-2-yl)pyridin-2-amine] |
| < 100 | Fc1ccc(CN2CCN(c3ncnc4ccc(-c5c[nH]c6ncccc56)cc34)CC2)cc1 [Compound 49, 4-(4-(4-fluorobenzyl)piperazin-1-yl)-6-(1H-pyrrolo[2,3-b]pyridin-3-yl)quinazoline] |
| < 100 | Nc1cc(-c2ccc3ncnc(N4CCN(c5ccc(F)cc5)CC4)c3n2)ccn1 [Compound 24, 4-(4-(4-(4-fluorophenyl)piperazin-1-yl)pyrido[3,2-d]pyrimidin-6-yl)pyridin-2-amine] |
| < 100 | Nc1cc(-c2ccc3nccc(N4CCN(c5ccccc5)CC4)c3c2)ccn1 [Compound 25, 4-(4-(4-phenylpiperazin-1-yl)quinolin-6-yl)pyridin-2-amine] |
| < 100 | c1ccc(N2CCN(c3ccnc4ccc(-c5cn[nH]c5)cc34)CC2)cc1 [Compound 26, 4-(4-phenylpiperazin-1-yl)-6-(1H-pyrazol-4-yl)quinoline] |
| < 100 | Nc1cc(-c2ccc3ncnc(N4CCC5(CCN(c6ccccn6)C5)CC4)c3c2)ccn1 [Compound 65, 4-(4-(2-(pyridin-2-yl)-2,8-diazaspiro[4.5]decan-8-yl)quinazolin-6-yl)pyridin-2-amine] |

Same assay, conditions: stimulated with 10 μM CHIR99021, 24 hours, TopGFP/mCherry

| Compound | EC50 [nM] |
| --- | --- |
| 6-(1H-pyrazol-3-yl)-4-(4-(pyridin-2-yl)piperazin-1-yl)pyrido[3,2-d]pyrimidine [Compound 18] | < 100 |
